Data from BigSolDB 2.1.

Cc1cc(C)[nH]n1
solubility (mole fraction)
Settings	in acetone	in acetonitrile	in ethanol	in ethyl acetate	in isopropanol	in methanol	in n-butanol	in n-propanol	in toluene
283.15 K	0.0625	0.0276	0.12	0.0508	0.115	0.107	0.133	0.123	0.0339
285.65 K	0.0691	0.0312	0.127	0.0578	0.121	0.112	0.14	0.13	0.0382
288.15 K	0.0757	0.0359	0.133	0.0663	0.128	0.118	0.149	0.137	0.045
290.65 K	0.0838	0.0408	0.14	0.077	0.134	0.123	0.158	0.145	0.0517
293.15 K	0.0935	0.0455	0.148	0.0881	0.142	0.131	0.166	0.152	0.0593
295.65 K	0.105	0.0508	0.155	0.1	0.149	0.137	0.176	0.16	0.0677
298.15 K	0.116	0.0568	0.163	0.113	0.157	0.143	0.187	0.167	0.0769
300.65 K	0.129	0.0635	0.171	0.128	0.164	0.15	0.199	0.175	0.0863
303.15 K	0.143	0.0722	0.179	0.144	0.171	0.158	0.211	0.184	0.0979
305.65 K	0.16	0.0806	0.187	0.161	0.18	0.165	0.224	0.194	0.114
308.15 K	0.175	0.0916	0.196	0.18	0.19	0.173	0.237	0.203	0.133
310.65 K	0.194	0.102	0.205	0.199	0.199	0.18	0.251	0.213	0.151
313.15 K	0.213	0.116	0.217	0.223	0.211	0.19	0.265	0.226	0.171
